Results reported in PubChem BioAssay (NCI).
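Where inhibition never reached the appropriate level, the endpoint shown equals the highest concentration tested. Otherwise, values were interpolated linearly from a five-concentration, 48-hour dose response in 96-well plates. At the GI50, growth is halved. TGI: concentration producing complete growth inhibition.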

What was measured:
Test in all cases: DTP human tumour cell line panel, 48 h
786-0 renal = test system: 786-0 renal
HCT-116 colon = test system: HCT-116 colon
UO-31 renal = test system: UO-31 renal
SNB-19 CNS = test system: SNB-19 CNS
SF-268 CNS = test system: SF-268 CNS
SF-539 CNS = test system: SF-539 CNS
OVCAR-4 ovarian = test system: OVCAR-4 ovarian
M14 melanoma = test system: M14 melanoma
UACC-257 melanoma = test system: UACC-257 melanoma
SW-620 colon = test system: SW-620 colon
SK-OV-3 ovarian = test system: SK-OV-3 ovarian
SK-MEL-2 melanoma = test system: SK-MEL-2 melanoma
K-562 leukemia = test system: K-562 leukemia
TK-10 renal = test system: TK-10 renal
SF-295 CNS = test system: SF-295 CNS
DU-145 prostate = test system: DU-145 prostate
MCF7 breast = test system: MCF7 breast
HT29 colon = test system: HT29 colon
ACHN renal = test system: ACHN renal
SN12C renal = test system: SN12C renal
HOP-92 NSCLC = test system: HOP-92 NSCLC
BT-549 breast = test system: BT-549 breast
A549 NSCLC = test system: A549 NSCLC
HS 578T breast = test system: HS 578T breast
COLO 205 colon = test system: COLO 205 colon
NCI-H460 lung = test system: NCI-H460 lung
MALME-3M melanoma = test system: MALME-3M melanoma
OVCAR-5 ovarian = test system: OVCAR-5 ovarian
RXF 393 renal = test system: RXF 393 renal

In the case of C=C1C(=O)O[C@H]2[C@H]1CC/C(COC(=O)CSCC(=O)OC/C1=C/CC[C@@]3(C)O[C@H]3[C@H]3OC(=O)C(=C)[C@@H]3CC1)=C\CC[C@@]1(C)O[C@@H]21, the GI50 (786-0 renal) is reported as 1500 nM, the TGI (786-0 renal) is reported as 3220 nM and the GI50 (HCT-116 colon) is reported as 466 nM. The TGI (HCT-116 colon) was 1590 nM, the GI50 (UO-31 renal) was 1440 nM and the TGI (UO-31 renal) was 2830 nM. It also gave a GI50 (SNB-19 CNS) of 3110 nM, a TGI (SNB-19 CNS) of 13900 nM and a GI50 (SF-268 CNS) of 3280 nM. The TGI (SF-268 CNS) was 13900 nM, the GI50 (SF-539 CNS) was 2040 nM and the TGI (SF-539 CNS) was 5080 nM. For the same molecule, the GI50 (OVCAR-4 ovarian) was 1790 nM, the TGI (OVCAR-4 ovarian) was 4600 nM and the GI50 (M14 melanoma) was 1630 nM. The TGI (M14 melanoma) was 3870 nM, the GI50 (UACC-257 melanoma) was 1760 nM and the TGI (UACC-257 melanoma) was 4300 nM. For the same molecule, the GI50 (SW-620 colon) was 1020 nM, the TGI (SW-620 colon) was 2440 nM and the GI50 (SK-OV-3 ovarian) was 15600 nM. The TGI (SK-OV-3 ovarian) was 29100 nM, the GI50 (SK-MEL-2 melanoma) was 2120 nM and the TGI (SK-MEL-2 melanoma) was 5620 nM. For the same molecule, the GI50 (K-562 leukemia) was 636 nM, the TGI (K-562 leukemia) was 4060 nM and the GI50 (TK-10 renal) was 1690 nM. For the same molecule, the TGI (TK-10 renal) was 3270 nM, the GI50 (SF-295 CNS) was 10200 nM and the TGI (SF-295 CNS) was 26200 nM. It also gave a GI50 (DU-145 prostate) of 1500 nM, a TGI (DU-145 prostate) of 3050 nM and a GI50 (MCF7 breast) of 480 nM. For the same molecule, the TGI (MCF7 breast) was 2330 nM, the GI50 (HT29 colon) was 1220 nM and the TGI (HT29 colon) was 2560 nM. The GI50 (ACHN renal) was 1230 nM, the TGI (ACHN renal) was 2480 nM and the GI50 (SN12C renal) was 1600 nM. It also gave a TGI (SN12C renal) of 3540 nM, a GI50 (HOP-92 NSCLC) of 1430 nM and a TGI (HOP-92 NSCLC) of 3600 nM. For the same molecule, the GI50 (BT-549 breast) was 1420 nM, the TGI (BT-549 breast) was 2900 nM and the GI50 (A549 NSCLC) was 5000 nM. The TGI (A549 NSCLC) was 18200 nM, the GI50 (HS 578T breast) was 3520 nM and the TGI (HS 578T breast) was 19300 nM. For the same molecule, the GI50 (COLO 205 colon) was 887 nM, the TGI (COLO 205 colon) was 2440 nM and the GI50 (NCI-H460 lung) was 2160 nM. For the same molecule, the TGI (NCI-H460 lung) was 4910 nM, the GI50 (MALME-3M melanoma) was 1240 nM and the TGI (MALME-3M melanoma) was 2800 nM. For the same molecule, the GI50 (OVCAR-5 ovarian) was 1850 nM, the TGI (OVCAR-5 ovarian) was 3860 nM and the GI50 (RXF 393 renal) was 416 nM.
